Measurements: US20150038435A1, “N-TERMINALLY MODIFIED OLIGOPEPTIDES AND USES THEREOF” (Novo Nordisk A/S, priority 2012, published 2015)
*: point of attachment. Lauroyl = CCCCCCCCCCCC(=O)*

Key:
Trypsin = assay: Inhibition of enzymatic degradation of a model GLP-1 (FRET substrate) by trypsin; format: biochemical; conditions: for EC50: read-out: EC50 Trypsin (0.001 mg/ml), 0.001 mg/ml trypsin, 37° C.
How it was run: (§1)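 Initial-rate slopes of fluorescence rise (320 nm ex, 405 nm em), fitted over the linear early phase and averaged from duplicates, were plotted against inhibitor concentration and fitted logistically to give EC50. Reactions ran at 37° C in Dulbecco's PBS, with MCA/DNP GLP-1 FRET substrate added as 10 μl of 100 μM stock.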

[1] = Hydrophobicity: retention time during reverse phase HPLC; format: physicochemical; conditions: Acquity CSH C18; pH 7.2 buffer/CH3CN gradient; 40° C.
Text: The retention time (RT) during reverse phase HPLC was taken as a measure of hydrophobicity of an N-terminally modified peptide or oligopeptide of the invention, where the connection is: The longer the RT, the more hydrophobic N-terminally modified peptide or oligopeptide. The following running conditions were applied during HPLC analysis:
Buffer B: 70% (v/v) aq. CH3CN

Chymotrypsin = assay: Inhibition of enzymatic degradation of a model GLP-1 (FRET substrate) by chymotrypsin; format: biochemical; conditions: for EC50: read-out: EC50 Chymotrypsin (0.001 mg/ml), 0.001 mg/ml chymotrypsin, 37° C., ± standard error if at least 3 measurements
How it was run: as §1

[2] = compound 0.1 mM, buffer containing 8% DMSO

| Substance | RT (retention time during reverse phase HPLC as a measure of hydrophobicity) [1] [min] | EC50 (Trypsin) [µM] | EC50 (Chymotrypsin) [µM] | Slope of the initial increase in fluorescence obtained during incubation with 0.001 mg/ml Trypsin (Trypsin; [2]) | Slope of the initial increase in fluorescence obtained during incubation with 0.001 mg/ml Chymotrypsin (Chymotrypsin; [2]) | Slope of the initial increase in fluorescence obtained during incubation with 0.001 mg/ml Trypsin (Trypsin; compound 1 mM) | Slope of the initial increase in fluorescence obtained during incubation with 0.001 mg/ml Chymotrypsin (Chymotrypsin; compound 1 mM) |
| --- | --- | --- | --- | --- | --- | --- | --- |
| N-dodecanoyl-Asn-Ala-Pro-Tyr-OH (Lauroyl-NAPY-OH; SMILES CCCCCCCCCCCC(=O)N[C@@H](CC(N)=O)C(=O)N[C@@H](C)C(=O)N1CCC[C@H]1C(=O)N[C@@H](Cc1ccc(O)cc1)C(=O)O) [Example 94] | 4.77 | – | – | 1.90 | 1.83 | – | – |
| N-dodecanoyl-Ala-Pro-Pro-Tyr-OH (Lauroyl-APPY-OH; SMILES CCCCCCCCCCCC(=O)N[C@@H](C)C(=O)N1CCC[C@H]1C(=O)N1CCC[C@H]1C(=O)N[C@@H](Cc1ccc(O)cc1)C(=O)O) [Example 85] | 6.1 | – | – | 1.92 | 1.81 | – | – |
| N-dodecanoyl-Ala-Ala-Ser-Tyr-OH (Lauroyl-AASY-OH; SMILES CCCCCCCCCCCC(=O)N[C@@H](C)C(=O)N[C@@H](C)C(=O)N[C@@H](CO)C(=O)N[C@@H](Cc1ccc(O)cc1)C(=O)O) [Example 70] | 5.43 | – | – | 1.45 | 1.50 | – | – |
| N-dodecanoyl-Gly-Ala-Ala-Pro-Tyr-OH [Example 36] | 5.33 | – | – | 1.47 | 0.16 | – | – |
| N-dodecanoyl-Ala-Ala-His-Tyr-OH (Lauroyl-AAHY-OH; SMILES CCCCCCCCCCCC(=O)N[C@@H](C)C(=O)N[C@@H](C)C(=O)N[C@@H](Cc1c[nH]cn1)C(=O)N[C@@H](Cc1ccc(O)cc1)C(=O)O) [Example 64] | 5.33 | – | – | 2.23 | 1.23 | – | – |
| N-dodecanoyl-Ala-His-Pro-Tyr-OH (Lauroyl-AHPY-OH; SMILES CCCCCCCCCCCC(=O)N[C@@H](C)C(=O)N[C@@H](Cc1c[nH]cn1)C(=O)N1CCC[C@H]1C(=O)N[C@@H](Cc1ccc(O)cc1)C(=O)O) [Example 79] | 5.29 | – | – | 1.93 | 0.51 | – | – |
| N-dodecanoyl-Ala-Tyr-Pro-Tyr-OH (Lauroyl-AYPY-OH; SMILES CCCCCCCCCCCC(=O)N[C@@H](C)C(=O)N[C@@H](Cc1ccc(O)cc1)C(=O)N1CCC[C@H]1C(=O)N[C@@H](Cc1ccc(O)cc1)C(=O)O) [Example 89] | 6.23 | – | – | 1.86 | 0.80 | – | – |
| N-dodecanoyl-Gln-Ala-Pro-Tyr-OH (Lauroyl-QAPY-OH; SMILES CCCCCCCCCCCC(=O)N[C@@H](CCC(N)=O)C(=O)N[C@@H](C)C(=O)N1CCC[C@H]1C(=O)N[C@@H](Cc1ccc(O)cc1)C(=O)O) [Example 103] | 4.92 | – | – | 1.78 | 1.13 | – | – |
| N-dodecanoyl-Ala-Ala-Asp-Tyr-OH (Lauroyl-AADY-OH; SMILES CCCCCCCCCCCC(=O)N[C@@H](C)C(=O)N[C@@H](C)C(=O)N[C@@H](CC(=O)O)C(=O)N[C@@H](Cc1ccc(O)cc1)C(=O)O) [Example 60] | 4.33 | – | – | 1.73 | 0.91 | – | – |
| N-hexadecanoyl-γGlu-OEG-Ala-Ala-Pro-Phe-OH [Example 134] | 7 | 46 | 48 | – | – | – | – |
| N-dodecanoyl-Ala-Val-Pro-Tyr-OH (Lauroyl-AVPY-OH; SMILES CCCCCCCCCCCC(=O)N[C@@H](C)C(=O)N[C@H](C(=O)N1CCC[C@H]1C(=O)N[C@@H](Cc1ccc(O)cc1)C(=O)O)C(C)C) [Example 90] | 6.6 | – | – | 1.25 | 0.35 | – | – |
| N-dodecanoyl-Pro-Pro-Tyr-OH [Example 106] | 6.01 | – | – | 1.75 | 1.72 | – | – |
| N-dodecanoyl-Glu-Ala-Pro-Tyr-OH (Lauroyl-EAPY-OH; SMILES CCCCCCCCCCCC(=O)N[C@@H](CCC(=O)O)C(=O)N[C@@H](C)C(=O)N1CCC[C@H]1C(=O)N[C@@H](Cc1ccc(O)cc1)C(=O)O) [Example 105] | 3.91 | – | – | 1.56 | 1.31 | – | – |

Now from value to substance, other results behind:

| RT (retention time during reverse phase HPLC as a measure of hydrophobicity) [1] [min] | EC50 (Trypsin) [µM] | EC50 (Chymotrypsin) [µM] | Substance | Slope of the initial increase in fluorescence obtained during incubation with 0.001 mg/ml Trypsin (Trypsin; [2]) | Slope of the initial increase in fluorescence obtained during incubation with 0.001 mg/ml Chymotrypsin (Chymotrypsin; [2]) | Slope of the initial increase in fluorescence obtained during incubation with 0.001 mg/ml Trypsin (Trypsin; compound 1 mM) | Slope of the initial increase in fluorescence obtained during incubation with 0.001 mg/ml Chymotrypsin (Chymotrypsin; compound 1 mM) |
| --- | --- | --- | --- | --- | --- | --- | --- |
| 6.21 | – | – | N-dodecanoyl-OEG-OEG-DPhe-OEG-OH [Example 131] | – | – | 0.62 | 0.53 |
| 3.83 | – | – | N-dodecanoyl-Glu-Ala-Ala-Pro-Tyr-OH [Example 104] | 1.63 | 0.16 | – | – |
| 4.94 | – | – | N-dodecanoyl-His-Ala-Ala-Pro-Tyr-OH [Example 38] | 1.66 | 0.02 | – | – |
| 5.02 | > 500 | 102 | N-tetradecanoyl-γGlu-OEG-Ala-Ala-Pro-Phe-OH [Example 126] | – | – | 0.30 | 0.05 |
| 4.04 | – | – | N-dodecanoyl-γGlu-Ala-Ala-Pro-Phe-OH [Example 12] | – | – | 0.30 | 0.76 |
| 6.24 | – | – | N-dodecanoyl-Tyr-Pro-Tyr-OH [Example 110] | 1.77 | 0.35 | – | – |
| 5.12 | – | – | N-dodecanoyl-His-Pro-Tyr-OH [Example 119] | 2.13 | 0.70 | – | – |
| 3.67 | – | – | N-dodecanoyl-γGlu-OEG-Pro-Arg-OH [Example 127] | – | – | 0.72 | 0.62 |
| 9.74 | – | 105 | N-tetradecanoyl-Ala-Ala-Pro-DPhe-OH [Example 5] | – | – | 0.35 | 0.09 |
| 8.16 | 39 | 154 | N-tetradecanoyl-βAla-βAla-βAla-Pro-Phe-OH [Example 138] | – | – | – | – |
| 3.62 | – | – | N-dodecanoyl-γGlu-OEG-OEG-DArg-OH [Example 133] | – | – | 0.09 | 0.27 |
| 9.74 | 74 | 57 ± 2 | N-tetradecanoyl-Ala-Ala-Pro-Phe-OH [Example 3] | – | – | 0.37 | 0.01 |
